Laboratory results reported in paper PMC2897805, “Evolution of AANAT: expansion of the gene family in the cephalochordate amphioxus” (2010).

Target: T1, bfAANATα (Branchiostoma floridae, UniProt B9TUB5)
T1 construct: gene AANATalpha; full-length cDNA clone from B. floridae head, GST fusion (pGEX 4T-1), E. coli BL21Gold(DE3) pLysS
T1 sequence (B9TUB5 1-247): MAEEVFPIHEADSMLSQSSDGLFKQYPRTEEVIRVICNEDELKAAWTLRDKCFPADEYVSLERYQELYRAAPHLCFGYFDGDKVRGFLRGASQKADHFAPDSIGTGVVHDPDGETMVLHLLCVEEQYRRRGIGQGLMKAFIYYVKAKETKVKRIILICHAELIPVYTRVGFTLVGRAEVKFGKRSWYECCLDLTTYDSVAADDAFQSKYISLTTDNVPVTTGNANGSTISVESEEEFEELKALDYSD
Assay: acetyltransferase activity assay, recombinant GST fusion; also displaces CoA-HNE
Type: biochemical

CC(C)(CO[P@@](=O)(O)O[P@@](=O)(O)OC[C@H]1O[C@@H](n2cnc3c(N)ncnc32)[C@H](O)[C@@H]1OP(=O)(O)O)[C@@H](O)C(=O)NCCC(=O)NCCSCC(=O)NCCc1c[nH]c2ccccc12 [CoA-T]
IC50: 3 µM
